Measurements as given in paper PMC8333062, “Chemical tools for epichaperome-mediated interactome dysfunctions of the central nervous system” (Nature Communications, 2021).
Read-outs that look alike come from different tables or passages of the source.

What was measured:
[1] = target: HSP90 pools in JNPL3 (AD transgenic) mouse brain lysate; assay: Fluorescence polarization (FP) competitive binding, cy3B-GM; details: read-out: FP relative affinity
[2] = for PAMPA_BBB: PAMPA; for PAMPA-BBB: pH 7.4
[3] = displacement of cy3B-GM, 24 h, 4 °C, mean±SD, n=3

| Structure (SMILES) | EC50 [1, 3] | PAMPA_BBB [2] | PAMPA-BBB [2] | EC50 [1] |
| --- | --- | --- | --- | --- |
| CC(C)NCCCn1c(Sc2cc3c(cc2Br)OCO3)nc2c(N)ncnc21 [Compound 3] | 122 ± 7 nM |  |  |  |
| CC(C)NCCCn1c(Sc2cc3c(cc2C#N)OCO3)nc2c(N)ncnc21 [Compound 5] | 285 ± 13 nM |  |  |  |
| CC(C)NCCCn1c(Cc2cc(I)c3c(c2)OCO3)nc2c(N)nc(F)nc21 [Compound 17] | 85 ± 10 nM |  |  |  |
| CC(C)CNCCn1c(Sc2cc3c(cc2I)OCO3)nc2c(N)ncnc21 [Compound 84] | 14 ± 2 nM | 8.9±0.5 | 8.9±0.5 10-6 cms-1 |  |
| CC(C)N(C)CCCn1c(Cc2cc3c(cc2I)OCO3)nc2c(N)nc(F)nc21 [Compound 60] | 39 ± 2 nM | 5.8±1.3 | 5.8±1.3 10-6 cms-1 |  |
| CC(C)NCCCn1c(Sc2cc3c(cc2-c2ccc(C(C)(C)C)cc2)OCO3)nc2c(N)ncnc21 [Compound 11] | 2600 nM | 12.5±0.6 | 12.5±0.6 10-6 cms-1 |  |
| CCN(CCCn1c(Cc2cc3c(cc2I)OCO3)nc2c(N)nc(F)nc21)C(C)C [Compound 61] | 30 ± 13 nM | 7.5±0.2 | 7.5±0.2 10-6 cms-1 |  |
| Nc1nc(F)nc2c1nc(Cc1cc3c(cc1I)OCO3)n2CCCN1CCN(CCO)CC1 [Compound 71] |  | 4.7±0.5 | 4.7±0.5 10-6 cms-1 | 200 ± 5 nM |
| C=CCc1cc2c(cc1Sc1nc3c(N)ncnc3n1CCCNC(C)C)OCO2 [Compound 8] | 122 ± 4 nM | 6.7±0.7 | 6.7±0.7 10-6 cms-1 |  |
| CC(C)NCCCn1c(Sc2cc3c(cc2I)OCCCO3)nc2c(N)ncnc21 [Compound 35] | 232 ± 10 nM |  |  |  |
| CC(C)NCCCn1c(Cc2cc(Br)c3c(c2)OCO3)nc2c(N)nc(F)nc21 [Compound 18] | 191 ± 6 nM |  |  |  |
| Nc1nc(F)nc2c1nc(Cc1cc3c(cc1I)OCO3)n2CCCN(CCO)C1CCCCC1 [Compound 70] | 24 ± 2 nM | 8.5±0.1 | 8.5±0.1 10-6 cms-1 |  |
| C=CCN(C)CCCn1c(Cc2cc3c(cc2I)OCO3)nc2c(N)nc(F)nc21 [Compound 65] | 44 ± 4 nM | 11.3±1.9 | 11.3±1.9 10-6 cms-1 |  |
| CC(C)NCCCn1c(Sc2cc3c(cc2-c2ccc(N(C)C)cc2)OCO3)nc2c(N)ncnc21 [Compound 12] | 1390 nM | 9.2±0.3 | 9.2±0.3 10-6 cms-1 |  |
| CC(C)NCCCn1c(Cc2cc3c(cc2C#N)OCO3)nc2c(N)nc(F)nc21 [Compound 20] | 219 ± 19 nM |  |  |  |
| CC(C)N(CCO)CCCn1c(Cc2cc3c(cc2I)OCO3)nc2c(N)nc(F)nc21 [Compound 69] |  | 1.1±0.1 | 1.1±0.1 10-6 cms-1 | 61 ± 2 nM |
| CCN(C)CCCn1c(Cc2cc3c(cc2I)OCO3)nc2c(N)nc(F)nc21 [Compound 62] | 45 ± 19 nM | 7.5±0.1 | 7.5±0.1 10-6 cms-1 |  |
| Nc1nc(F)nc2c1nc(Cc1cc3c(cc1I)OCO3)n2CCCN1CCOCC1 [Compound 68] |  | 6.3±1.1 | 6.3±1.1 10-6 cms-1 | 202 ± 7 nM |
| CC(C)CNCCn1c(Sc2cc3c(cc2I)CCO3)nc2c(N)ncnc21 [Compound 86] | 5.5 ± 0.6 nM | 9.3±0.2 | 9.3±0.2 10-6 cms-1 |  |
| C=Cc1cc2c(cc1Sc1nc3c(N)ncnc3n1CCCNC(C)C)OCO2 [Compound 7] | 213 ± 7 nM | 6.1±0.1 | 6.1±0.1 10-6 cms-1 |  |
| CC(=O)c1cc2c(cc1Sc1nc3c(N)ncnc3n1CCCNC(C)C)OCO2 [Compound 6] | 103 ± 7 nM |  |  |  |
| CC1CN1CCCn1c(Cc2cc3c(cc2I)OCO3)nc2c(N)nc(F)nc21 (stereo not shown) [Compound 66] |  | 5.8±1.5 | 5.8±1.5 10-6 cms-1 | 105 ± 5 nM |
| CC(C)NCCCn1c(Sc2cc3ccccc3cc2I)nc2c(N)ncnc21 [Compound 58] | 97 ± 3 nM | 10.8±0.2 | 10.8±0.2 10-6 cms-1 |  |
| CCCN(CCCn1c(Cc2cc3c(cc2I)OCO3)nc2c(N)nc(F)nc21)CC1CC1 [Compound 63] | 43 ± 4 nM | 8.4±2.1 | 8.4±2.1 10-6 cms-1 |  |
